Where “and” joins values, the source holds several entries; their conditions need not be identical. Equal entries are not always repeated. Toxic doses and inconclusive results are not listed.
Test system: BDF1 mice, P388 leukemia ip, median survival T/C
Test: NCI In Vivo Anticancer Drug Screen. Data for tumor model P388 Leukemia (intraperitoneal) in B6D2F1 (BDF1) mice
Settings: endpoint: median survival time, higher = longer survival
Method in brief: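 Vehicle-dosed animals serve as the reference; survival of compound-dosed, tumour-implanted mice is divided by it.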

[1] = dose: 12.5 mg/kg/injection, schedule: Q01DX009 (ip), vehicle: saline
[2] = dose: 50.0 mg/kg/injection, schedule: Q01DX009 (ip), vehicle: saline with Tween-80
[3] = dose: 100.0 mg/kg/injection, schedule: Q01DX009 (ip), vehicle: saline with Tween-80
[4] = dose: 100.0 mg/kg/injection, schedule: Q04DX003 (ip), vehicle: saline with Tween-80
[5] = dose: 200.0 mg/kg/injection, schedule: Q01DX009 (ip), vehicle: saline with Tween-80
[6] = dose: 200.0 mg/kg/injection, schedule: Q04DX003 (ip), vehicle: saline with Tween-80
[7] = dose: 400.0 mg/kg/injection, schedule: Q04DX003 (ip), vehicle: saline with Tween-80
[8] = dose: 25.0 mg/kg/injection, schedule: Q01DX009 (ip), vehicle: saline
[9] = dose: 50.0 mg/kg/injection, schedule: Q01DX009 (ip), vehicle: saline
[10] = dose: 100.0 mg/kg/injection, schedule: Q01DX009 (ip), vehicle: saline
[11] = dose: 200.0 mg/kg/injection, schedule: Q01DX009 (ip), vehicle: saline
[12] = dose: 100.0 mg/kg/injection, schedule: Q01DX009 (ip), vehicle: Klucel (hydroxypropylcellulose) (HPC)
[13] = dose: 25.0 mg/kg/injection, schedule: Q04DX003 (ip), vehicle: saline
[14] = dose: 100.0 mg/kg/injection, schedule: Q04DX003 (ip), vehicle: Klucel (hydroxypropylcellulose) (HPC)
[15] = dose: 200.0 mg/kg/injection, schedule: Q04DX003 (ip), vehicle: Klucel (hydroxypropylcellulose) (HPC)
[16] = dose: 400.0 mg/kg/injection, schedule: Q04DX003 (ip), vehicle: Klucel (hydroxypropylcellulose) (HPC)

C1CC[N-]CC1.C1CC[N-]CC1.C1CC[N-]CC1.C1CC[N-]CC1.[Pt+4]
T/C (dose: 6.25 mg/kg/injection, schedule: Q01DX009 (ip), vehicle: saline): 110 % of control
T/C [1]: 100 % of control

COc1cccc(CCNC(=O)CC#N)c1OC
T/C [2]: 105 % of control
T/C [3]: 105 % of control
T/C [4]: 100 % of control
T/C [5]: 95 % of control
T/C [6]: 100 % of control
T/C [7]: 100 % of control

CC(NC(=O)C(C)NC(=O)C(N)CCS(C)(=O)=NP(=O)(O)O)C(=O)O (centres undefined)
T/C [1]: 101 % of control
T/C [8]: 110 % of control

CC(CN1CC(=O)NC(=O)C1)N1CC(=O)NC(=O)C1.[Cl-].[Pt+4] (centres undefined)
T/C [1]: 100 % of control
T/C [8]: 95 % of control and 118 % of control
T/C [9]: 97 % of control
T/C [10]: 91 % of control
T/C [11]: 105 % of control

COc1cccc2c1C(=O)c1c(O)c3c(c(O)c1C2=O)CC(O)(/C(C)=N/NC(=O)CCCCCCC(=O)N/N=C(\C)C1(O)Cc2c(O)c4c(c(O)c2C(OC2CC(N)C(O)C(C)O2)C1)C(=O)c1c(OC)cccc1C4=O)CC3OC1CC(N)C(O)C(C)O1 (centres undefined)
T/C (dose: 2.0 mg/kg/injection, schedule: Q01DX009 (ip), vehicle: water): 165 % of control
T/C (dose: 4.0 mg/kg/injection, schedule: Q01DX009 (ip), vehicle: water): 201 % of control

CCOC(=O)CNCc1ccc(C)cc1
T/C (dose: 50.0 mg/kg/injection, schedule: Q01DX009 (ip), vehicle: water): 100 % of control
T/C (dose: 100.0 mg/kg/injection, schedule: Q01DX009 (ip), vehicle: water): 99 % of control
T/C (dose: 100.0 mg/kg/injection, schedule: Q04DX003 (ip), vehicle: water): 91 % of control
T/C (dose: 200.0 mg/kg/injection, schedule: Q01DX009 (ip), vehicle: water): 103 % of control
T/C (dose: 200.0 mg/kg/injection, schedule: Q04DX003 (ip), vehicle: water): 93 % of control
T/C (dose: 400.0 mg/kg/injection, schedule: Q01DX009 (ip), vehicle: water): 108 % of control
T/C (dose: 400.0 mg/kg/injection, schedule: Q04DX003 (ip), vehicle: water): 100 % of control

O=C(c1ccccc1)N1CCC2OC2C1 (centres undefined)
T/C [9]: 94 % of control
T/C [10]: 109 % of control
T/C [11]: 100 % of control

NC(N)=NCCNC(=O)C1CCC(N)C1 (centres undefined)
T/C (dose: 0.08 mg/kg/injection, schedule: Q01DX009 (ip), vehicle: saline): 97 % of control
T/C (dose: 0.16 mg/kg/injection, schedule: Q01DX009 (ip), vehicle: saline): 97 % of control
T/C (dose: 0.32 mg/kg/injection, schedule: Q01DX009 (ip), vehicle: saline): 99 % of control
T/C (dose: 0.63 mg/kg/injection, schedule: Q01DX009 (ip), vehicle: saline): 100 % of control

CS(=O)(=O)OCC(O)C(O)C(O)C(O)COS(C)(=O)=O (centres undefined)
T/C (dose: 25.0 mg/kg/injection, schedule: Q01DX010 (ip), vehicle: saline): 108 % of control
T/C (dose: 50.0 mg/kg/injection, schedule: Q01DX010 (ip), vehicle: saline): 116 % of control

O=S(=O)(NC(=S)Nc1ccc(Cl)cc1)c1ccccc1
T/C (dose: 50.0 mg/kg/injection, schedule: Q01DX009 (ip), vehicle: Klucel (hydroxypropylcellulose) (HPC)): 113 % of control
T/C [12]: 118 % of control
T/C (dose: 150.0 mg/kg/injection, schedule: Q04DX003 (ip), vehicle: Klucel (hydroxypropylcellulose) (HPC)): 113 % of control
T/C (dose: 225.0 mg/kg/injection, schedule: Q04DX003 (ip), vehicle: Klucel (hydroxypropylcellulose) (HPC)): 117 % of control
T/C (dose: 335.0 mg/kg/injection, schedule: Q04DX003 (ip), vehicle: Klucel (hydroxypropylcellulose) (HPC)): 113 % of control

Cn1cnc([N+](=O)[O-])c1Sc1nc(N)nc2c1ncn2C1OC(CO)C(O)C1O (centres undefined)
T/C (dose: 7.0 mg/kg/injection, schedule: Q04DX003 (ip), vehicle: saline): 163 % of control
T/C (dose: 7.03 mg/kg/injection, schedule: Q01DX009 (ip), vehicle: saline): 120 % of control
T/C (dose: 9.2 mg/kg/injection, schedule: Q01DX009 (ip), vehicle: saline): 163 % of control
T/C (dose: 14.06 mg/kg/injection, schedule: Q01DX009 (ip), vehicle: saline): 163 % of control
T/C (dose: 16.0 mg/kg/injection, schedule: Q04DX003 (ip), vehicle: saline): 168 % of control and 172 % of control
T/C (dose: 21.0 mg/kg/injection, schedule: Q01DX009 (ip), vehicle: saline): 95 % of control
T/C [13]: 161 % of control and 168 % of control
T/C (dose: 56.25 mg/kg/injection, schedule: Q01DX009 (ip), vehicle: saline): 100 % of control
T/C (dose: 150.0 mg/kg/injection, schedule: Q04DX003 (ip), vehicle: saline): 104 % of control and 113 % of control
T/C (dose: 225.0 mg/kg/injection, schedule: Q04DX003 (ip), vehicle: saline): 109 % of control
T/C (dose: 335.0 mg/kg/injection, schedule: Q04DX003 (ip), vehicle: saline): 109 % of control

CCC/[N+]([O-])=C/c1ccc([N+](=O)[O-])o1
T/C (dose: 25.0 mg/kg/injection, schedule: Q01DX009 (ip), vehicle: saline with Tween-80): 101 % of control
T/C [2]: 105 % of control
T/C [3]: 115 % of control

CC[C@@H]1CN(C)[C@H]2Cc3c([nH]c4ccccc34)C(=O)C[C@H]1C2C(=O)OC (some centres undefined)
T/C (dose: 100.0 mg/kg/injection, schedule: Q01DX009 (ip), vehicle: saline sonified): 90 % of control
T/C (dose: 100.0 mg/kg/injection, schedule: Q04DX003 (ip), vehicle: saline sonified): 100 % of control
T/C (dose: 200.0 mg/kg/injection, schedule: Q01DX009 (ip), vehicle: saline sonified): 115 % of control
T/C (dose: 200.0 mg/kg/injection, schedule: Q04DX003 (ip), vehicle: saline sonified): 100 % of control
T/C (dose: 400.0 mg/kg/injection, schedule: Q01DX009 (ip), vehicle: saline sonified): 100 % of control
T/C (dose: 400.0 mg/kg/injection, schedule: Q04DX003 (ip), vehicle: saline sonified): 90 % of control

c1ccc(C2CC3CCCCN3O2)cc1 (centres undefined)
T/C (dose: 100.0 mg/kg/injection, schedule: Q04DX002 (ip), vehicle: saline with Tween-80): 94 % of control
T/C (dose: 200.0 mg/kg/injection, schedule: Q04DX002 (ip), vehicle: saline with Tween-80): 103 % of control
T/C (dose: 400.0 mg/kg/injection, schedule: Q04DX002 (ip), vehicle: saline with Tween-80): 86 % of control

O=C(O)c1cc(-c2ccccc2)[nH]c1-c1ccccc1
T/C [9]: 90 % of control

CCCCN(C(=O)C(F)(F)F)C(C)(C)C(SSSC(c1ccc(Cl)cc1)C(C)(C)N(CCCC)C(=O)C(F)(F)F)c1ccc(Cl)cc1 (centres undefined)
T/C [3]: 100 % of control
T/C [4]: 100 % of control
T/C [5]: 100 % of control
T/C [6]: 100 % of control
T/C (dose: 400.0 mg/kg/injection, schedule: Q01DX009 (ip), vehicle: saline with Tween-80): 100 % of control
T/C [7]: 118 % of control

C(/C=N/N(c1ccccc1)c1ccccc1)=N\N(c1ccccc1)c1ccccc1
T/C [14]: 100 % of control
T/C [15]: 104 % of control
T/C [16]: 104 % of control

COc1ccc2cc(Br)ccc2c1
T/C [4]: 95 % of control
T/C [6]: 109 % of control
T/C [7]: 100 % of control

Cc1ccc(C(=S)NC(=O)Nc2ccccc2)cc1
T/C (dose: 50.0 mg/kg/injection, schedule: Q01DX001 (ip), vehicle: saline with Tween-80): 93 % of control
T/C (dose: 100.0 mg/kg/injection, schedule: Q01DX001 (ip), vehicle: saline with Tween-80): 92 % of control
T/C (dose: 200.0 mg/kg/injection, schedule: Q01DX001 (ip), vehicle: saline with Tween-80): 90 % of control

CC(=O)Nc1cccc([N+](=O)[O-])c1
T/C [2]: 100 % of control
T/C [3]: 100 % of control
T/C [5]: 104 % of control

CN(C)c1ccc(/C=C/c2nc3ccccc3s2)cc1
T/C [12]: 100 % of control
T/C [14]: 112 % of control
T/C (dose: 200.0 mg/kg/injection, schedule: Q01DX009 (ip), vehicle: Klucel (hydroxypropylcellulose) (HPC)): 109 % of control
T/C [15]: 108 % of control
T/C (dose: 400.0 mg/kg/injection, schedule: Q01DX009 (ip), vehicle: Klucel (hydroxypropylcellulose) (HPC)): 109 % of control
T/C [16]: 100 % of control

NC(=O)c1cn(C2OC(CO)C(O)C2O)c2ncn3ccnc3c12 (centres undefined)
T/C (dose: 6.25 mg/kg/injection, schedule: Q04DX003 (ip), vehicle: saline): 118 % of control
T/C [13]: 115 % of control
T/C (dose: 100.0 mg/kg/injection, schedule: Q04DX003 (ip), vehicle: saline): 118 % of control

— PubChem BioAssay AID328 (DTP/NCI, 2004)
